Test results: PubChem BioAssay AID1259411 (Chemical Carcinogenesis Research Information System (CCRIS), 2018)
The source made the active and inactive calls. The rule behind the calls is not given here.

Tested on: rodent carcinogenicity bioassays, tumor incidence
Assay: CCRIS carcinogenicity studies
Summary of the method: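 NCI-built, expert-reviewed records of carcinogenicity and related test outcomes (mutagenicity, tumor promotion/inhibition) compiled from published and report sources, historical span 1985-2011, not updated.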

Q: Which results are given for `O=C(O)CCCc1ccc(N(CCCl)CCCl)cc1`?
A: carcinogen call (Species: HUMAN, Route: ORAL, Tumor Site: Type of Lesion: HEMATOPOIETIC SYSTEM (LEUKEMIA)): active; positive; carcinogen call (Species: MOUSE, Strain/Sex: BALB/FEMALE, Route: INTRAGASTRIC, Dose: 0, 1 MG/KG SUSPENDED IN WATER 5/WK FOR 12 WK (STUDY DURATION: 120 WK), Tumor Site: Type of Lesion: LUNG: ADENOMA): active; positive; carcinogen call (Species: MOUSE, Strain/Sex: BALB/FEMALE, Route: INTRAGASTRIC, Dose: 0, 1 MG/KG SUSPENDED IN WATER 5/WK FOR 12 WK (STUDY DURATION: 120 WK), Tumor Site: Type of Lesion: LYMPHORETICULAR SYSTEM: TUMOR): active; positive; carcinogen call (Species: MOUSE, Strain/Sex: BALB/FEMALE, Route: INTRAGASTRIC, Dose: 0, 1 MG/KG SUSPENDED IN WATER 5/WK FOR 12 WK (STUDY DURATION: 120 WK), Tumor Site: Type of Lesion: MAMMARY GLAND: ADENOMA OR ADENOCANTHOMA): active; positive; carcinogen call (Species: MOUSE, Strain/Sex: BALB/MALE, Route: INTRAGASTRIC, Dose: 0, 1 MG/KG SUSPENDED IN WATER 5/WK FOR 12 WK (STUDY DURATION: 120 WK), Tumor Site: Type of Lesion: LUNG: ADENOMA): active; positive; carcinogen call (Species: MOUSE, Strain/Sex: BALB/MALE, Route: INTRAGASTRIC, Dose: 0, 1 MG/KG SUSPENDED IN WATER 5/WK FOR 12 WK (STUDY DURATION: 120 WK), Tumor Site: Type of Lesion: LYMPHORETICULAR SYSTEM: TUMOR): active; positive; carcinogen call (Species: MOUSE, Strain/Sex: STRAIN-A/MALE,FEMALE, Route: INTRAPERITONEAL, Dose: 9.6, 37, 150, 420 MG/KG (TOTAL DOSES) IN 0.5% ACACIA OR 0.01% TRICAPRYLIN SOLN 3/WK FOR 4 WK, Dose: 9.6, 37, 150, 420 MG/KG (TOTAL DOSES) IN 0.5% ACACIA OR 0.01% TRICAPRYLIN SOLN 3/WK FOR 4 WK, Tumor Site: Type of Lesion: LUNG: ADENOMA, ADENOCARCINOMA): active; positive; carcinogen call (Species: MOUSE, Strain/Sex: SWISS/FEMALE, Route: INTRAPERITONEAL, Dose: 1.5, 3.0 MG/KG 3/WK FOR 6 MO, Tumor Site: Type of Lesion: LUNG: ADENOMA, LYMPHATIC SYSTEM: LYMPHOSARCOMA, OVARIES, Tumor Site: Type of Lesion: LUNG: ADENOMA, LYMPHATIC SYSTEM: LYMPHOSARCOMA, OVARIES): active; positive; carcinogen call (Species: MOUSE, Strain/Sex: SWISS/MALE, Route: INTRAPERITONEAL, Dose: 1.5, 3.0 MG/KG 3/WK FOR 6 MO, Tumor Site: Type of Lesion: HEMATOPOIETIC SYSTEM (LEUKEMIA), LYMPHATIC SYSTEM: LYMPHOSARCOMA, LUNG: ADENOMA, Tumor Site: Type of Lesion: HEMATOPOIETIC SYSTEM (LEUKEMIA), LYMPHATIC SYSTEM: LYMPHOSARCOMA, LUNG: ADENOMA): active; positive; carcinogen call (Species: RAT, Strain/Sex: CD-1/MALE, Route: INTRAPERITONEAL, Dose: 2.2, 4.5 MG/KG 3/WK FOR 6 MO, Tumor Site: Type of Lesion: HEMATOPOIETIC SYSTEM (LEUKEMIA), LYMPHATIC SYSTEM: LYMPHOSARCOMA, RETICULAR CELL SARCOMA): active; positive; carcinogen call (Species: RAT, Strain/Sex: SPRAGUE-DAWLEY/FEMALE, Route: GAVAGE, Dose: 0, 3 MG/KG ADMINISTERED 1, 2, 4.5 OR 9 TIMES PER MO FOR 18 MO TO GIVE MEDIAN TOTAL DOSES OF 54, 108, 234, 425 MG/KG (STU, Dose: 0, 3 MG/KG ADMINISTERED 1, 2, 4.5 OR 9 TIMES PER MO FOR 18 MO TO GIVE MEDIAN TOTAL DOSES OF 54, 108, 234, 425 MG/KG (STU, Tumor Site: Type of Lesion: MAMMARY GLAND: TUMOR, NERVOUS SYSTEM: TUMOR, EAR CANAL: TUMOR, Tumor Site: Type of Lesion: MAMMARY GLAND: TUMOR, NERVOUS SYSTEM: TUMOR, EAR CANAL: TUMOR): active; positive

Q: `Clc1ccc(C(c2ccccc2Cl)C(Cl)(Cl)Cl)cc1` (stereo not given) (tested in a mixture with another compound) was tested. Which carcinogen call (Species: MOUSE, Strain/Sex: BALB/MALE,FEMALE, Route: DIET, Dose: 0, 2, 20, 250 PPM, Dose: 0, 2, 20, 250 PPM, Tumor Site: Type of Lesion: LIVER: HEPATOCELLULAR TUMOR) did it give?
A: active; positive

Q: What about the carcinogen call (Species: MOUSE, Strain/Sex: CF-1/MALE,FEMALE, Route: DIET, Dose: 0, 250 PPM FOR 30 WK, Tumor Site: Type of Lesion: LIVER: HEPATOMA) of the same compound?
A: active; positive

Q: And the carcinogen call (Species: MOUSE, Strain/Sex: CF-1, Route: DIET, Dose: 0, 2, 10, 50, 250 PPM, Dose: 0, 2, 10, 50, 250 PPM, Tumor Site: Type of Lesion: LIVER: HEPATOCELLULAR TUMOR)?
A: active; positive

Q: `C=[N+]=[N-]` was tested. Which carcinogen call (Species: MOUSE, Route: INHALATION, DERMAL, Tumor Site: Type of Lesion: LUNG) did it give?
A: active; positive

Q: What about the carcinogen call (Species: RAT, Route: INHALATION, Tumor Site: Type of Lesion: LUNG) of the same compound?
A: active; positive

Q: With `CNC(=O)N(C)N=O` as the compound, how does the carcinogen call (Species: RAT, Strain/Sex: F344/FEMALE, Route: GAVAGE, Dose: 0, 20, 40 UMOL/WK IN CORN OIL/ETHYL ACETATE (2: 1) FOR 30 WK FOR TOTAL DOSES OF 0, 0.6, 1.2 MMOL (STUDY DURATION: LIFETI, Dose: 0, 20, 40 UMOL/WK IN CORN OIL/ETHYL ACETATE (2: 1) FOR 30 WK FOR TOTAL DOSES OF 0, 0.6, 1.2 MMOL (STUDY DURATION: LIFETI, Tumor Site: Type of Lesion: NERVOUS SYSTEM: TUMOR) read?
A: active; positive

Q: And the carcinogen call (Species: RAT, Strain/Sex: F344/FEMALE, Route: INTRAVESICULAR, Dose: 0, 2.4 MG 2/WK FOR 30 WK (STUDY DURATION: LIFETIME), Tumor Site: Type of Lesion: BRAIN: TUMOR, KIDNEY: TUMOR)?
A: active; positive

Q: And the carcinogen call (Species: RAT, Strain/Sex: F344/FEMALE, Route: ORAL, Dose: 0, 20, 40 UMOL/WK IN DRINKING WATER FOR 30 WK FOR TOTAL DOSES OF 0, 0.6, 1.2 MMOL (STUDY DURATION: LIFETIME), Dose: 0, 20, 40 UMOL/WK IN DRINKING WATER FOR 30 WK FOR TOTAL DOSES OF 0, 0.6, 1.2 MMOL (STUDY DURATION: LIFETIME), Tumor Site: Type of Lesion: UTERUS: TUMOR, THYROID: FOLLICULAR CELL TUMOR, NERVOUS SYSTEM: TUMOR, Tumor Site: Type of Lesion: UTERUS: TUMOR, THYROID: FOLLICULAR CELL TUMOR, NERVOUS SYSTEM: TUMOR)?
A: active; positive

Q: What about the carcinogen call (Species: RAT, Strain/Sex: F344/MALE, Route: GAVAGE, Dose: 0, 20, 40 UMOL/WK IN CORN OIL/ETHYL ACETATE (2: 1) FOR 30 WK FOR TOTAL DOSES OF 0, 0.6, 1.2 MMOL (STUDY DURATION: LIFETI, Dose: 0, 20, 40 UMOL/WK IN CORN OIL/ETHYL ACETATE (2: 1) FOR 30 WK FOR TOTAL DOSES OF 0, 0.6, 1.2 MMOL (STUDY DURATION: LIFETI, Tumor Site: Type of Lesion: NERVOUS SYSTEM: TUMOR, TESTIS: MESOTHELIOMA) of the same compound?
A: active; positive

Q: What about the carcinogen call (Species: RAT, Strain/Sex: F344/MALE, Route: ORAL, Dose: 0, 20, 40 UMOL/WK IN DRINKING WATER FOR 30 WK FOR TOTAL DOSES OF 0, 0.6, 1.2 MMOL (STUDY DURATION: LIFETIME), Dose: 0, 20, 40 UMOL/WK IN DRINKING WATER FOR 30 WK FOR TOTAL DOSES OF 0, 0.6, 1.2 MMOL (STUDY DURATION: LIFETIME), Tumor Site: Type of Lesion: TESTIS: MESOTHELIOMA, NERVOUS SYSTEM: TUMOR) of the same compound?
A: active; positive

Q: With `CC/C=C/C=C/C=C/C=C/C=C/OC[C@@H](O)CO` as the compound, how does the carcinogen call (Species: MOUSE, Strain/Sex: ICR/FEMALE, Route: INTRAPERITONEAL, Dose: 0, 2.6 MG/KG IN DMSO ON D 1 AND D 3 THEN 0, 5.2 MG/KG IN DMSO ON D 7, 10, 14 AND (STUDY DURATION: 21 MO), Dose: 0, 2.6 MG/KG IN DMSO ON D 1 AND D 3 THEN 0, 5.2 MG/KG IN DMSO ON D 7, 10, 14 AND (STUDY DURATION: 21 MO)) read?
A: inactive; negative

Q: What about the carcinogen call (Species: MOUSE, Strain/Sex: ICR/MALE, Route: INTRAPERITONEAL, Dose: 0, 2.6 MG/KG IN DMSO ON D 1 AND D 3 THEN 0, 5.2 MG/KG IN DMSO ON D 7, 10, 14 AND (STUDY DURATION: 21 MO), Dose: 0, 2.6 MG/KG IN DMSO ON D 1 AND D 3 THEN 0, 5.2 MG/KG IN DMSO ON D 7, 10, 14 AND (STUDY DURATION: 21 MO), Tumor Site: Type of Lesion: LIVER: ADENOMA, CARCINOMA, LUNG: ADENOMA, CARCINOMA, GLANDULAR STOMACH: ADENOCARCINOMA, SUBCUTANEOUS TISSUE: FIBROSARCOM, Tumor Site: Type of Lesion: LIVER: ADENOMA, CARCINOMA, LUNG: ADENOMA, CARCINOMA, GLANDULAR STOMACH: ADENOCARCINOMA, SUBCUTANEOUS TISSUE: FIBROSARCOM) of the same compound?
A: active; positive

Q: And the carcinogen call (Species: RAT, Strain/Sex: F344/MALE, Route: INTRARECTAL, Dose: 0, 5, 10 NANOMOLAR IN 0.5 ML T-E BUFFER AND METHANOL SATURATED WITH ARGON 1/WK FOR 85 WK (STUDY DURATION: 28 MO), Dose: 0, 5, 10 NANOMOLAR IN 0.5 ML T-E BUFFER AND METHANOL SATURATED WITH ARGON 1/WK FOR 85 WK (STUDY DURATION: 28 MO))?
A: inactive; negative

Q: And the carcinogen call (Species: RAT, Strain/Sex: F344/MALE, Route: INTRARECTAL, Dose: 0, 14 MG/KG IN DMSO: EMULPHOR-SALINE 34WK FOR 9 WK THEN 2/WK FOR 12 WK AND 1/WK FOR 50 WK (STUDY DURATION: 92 WK))?
A: inactive; negative
